Tests used:
Type in all cases: cell-based
[1] = molecular target: T1, PPARα (Homo sapiens, UniProt Q07869); assay: Chimeric Gal4DBD-PPARαLBD receptor / UASg-luciferase reporter gene assay in HeLa cells; conditions: for increase of the activity of maximal doses of PPARα agonist: with WY14643 30×10^−6M
T1 construct: expressed in transfected cells; host or cells: HeLa
T1 sequence (Q07869 239-466 limits assumed): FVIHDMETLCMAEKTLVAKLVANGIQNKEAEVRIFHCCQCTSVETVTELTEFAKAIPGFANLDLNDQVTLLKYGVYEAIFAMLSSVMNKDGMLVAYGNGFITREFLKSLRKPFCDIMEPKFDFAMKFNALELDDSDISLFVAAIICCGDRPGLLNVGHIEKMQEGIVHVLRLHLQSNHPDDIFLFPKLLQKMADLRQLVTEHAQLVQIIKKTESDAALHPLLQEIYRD
Text: (§1) In an example of such a reporter gene assay, a plasmid containing chimeric Ga14DBD-PPARLBD receptor cDNA was constructed by excising the ligand binding domain (LBD) of full length PPARγ and PPARα and ligating the resulting fragments in frame to the Ga14-DNA binding domain (DBD) of Saccharomyces cerevisiae in a pM vector (Clontech). Specifically, to construct Ga14DBD-PPARγLBD plasmid, pSG5 expression vector (Stratagene) containing full length PPARγ was excised with Rsa I and blunt ligated to Hind III site of pMGa14DBD expression plasmid (Clontech). To construct Ga14DBD-PPARαLBD plasmid, pSG5 expression vector (Stratagene) containing full length PPARα was excised with BstU I and BamH I and blunt-end ligated in frame to BamH I site of pMGa14DBD expression plasmid (Clontech). […] Ga14 DBD binds very strongly to the exogenous UASg promoter, thereby giving rise to a sensitive and specific assay. To measure PPARγ and PPARα agonist activity, HeLa cells were grown in 24-well microtiter plates and then transiently co-transfected with the two plasmids (chimeric PPAR receptor and UASg reporter gene) using Lipofectamine (Invitrogen). […] Concurrently, cells exposed to known PPAR ligands served as positive controls. Replicate wells, exposed to the vehicle solvent (i.e., ethanol or methanol) in which herbal extracts were dissolved, were used as negative controls. After the 40 hr incubation period, cells were rinsed with phosphate buffered saline (PBS), lysis buffer was added, and cell lysates were collected for measurement of luciferase activity using a luminometer. […] All data points are in triplicate. The data points represent the mean of triplicate wells. Luciferase activity in such an assay accurately reflects the activity of any ligands on PPARγ or PPARα.

[2] = molecular target: T2, human androgen receptor (Homo sapiens, UniProt P10275); assay: AR (ARE)2-Luc luciferase reporter gene assay in HeLa cells
T2 construct: expressed in transfected cells; host or cells: HeLa
T2 sequence (P10275 1-920): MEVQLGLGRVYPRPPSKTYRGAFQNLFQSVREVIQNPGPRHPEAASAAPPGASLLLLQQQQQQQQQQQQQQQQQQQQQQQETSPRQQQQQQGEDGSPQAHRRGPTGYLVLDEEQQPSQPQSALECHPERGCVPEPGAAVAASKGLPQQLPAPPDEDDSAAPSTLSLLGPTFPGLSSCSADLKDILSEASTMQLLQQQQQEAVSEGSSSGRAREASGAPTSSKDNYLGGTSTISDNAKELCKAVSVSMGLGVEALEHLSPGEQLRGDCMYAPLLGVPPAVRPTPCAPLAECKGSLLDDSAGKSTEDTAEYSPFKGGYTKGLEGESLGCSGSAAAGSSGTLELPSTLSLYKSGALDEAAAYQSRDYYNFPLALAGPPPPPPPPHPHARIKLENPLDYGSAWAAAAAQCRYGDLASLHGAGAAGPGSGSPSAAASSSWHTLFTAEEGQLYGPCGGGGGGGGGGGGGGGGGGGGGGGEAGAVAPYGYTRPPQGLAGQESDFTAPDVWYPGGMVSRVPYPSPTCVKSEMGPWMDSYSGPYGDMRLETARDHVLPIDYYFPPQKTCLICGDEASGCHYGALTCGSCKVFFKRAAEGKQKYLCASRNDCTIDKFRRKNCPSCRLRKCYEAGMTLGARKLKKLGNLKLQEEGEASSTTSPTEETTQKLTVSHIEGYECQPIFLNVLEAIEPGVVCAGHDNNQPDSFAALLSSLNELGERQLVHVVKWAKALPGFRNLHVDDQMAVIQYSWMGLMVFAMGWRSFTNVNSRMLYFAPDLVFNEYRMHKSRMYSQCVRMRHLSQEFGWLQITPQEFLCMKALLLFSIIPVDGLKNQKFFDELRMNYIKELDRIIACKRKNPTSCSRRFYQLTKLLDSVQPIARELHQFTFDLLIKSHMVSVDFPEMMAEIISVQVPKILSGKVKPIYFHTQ
Procedure: (§2) The capacity of HQ extract to activate other steroid receptors, namely AR, PR, GR, ERα and ERβ was examined. […] The (ARE)2-Luc plasmid consist of two repeats of Androgen Response Element (ARE) cloned upstream of the Luciferase Reporter gene in a pGL3-Basic vector (Promega).
(§3) AR, PR, GR and ERα and […] were determined by comparing luciferase activity in test cells with control cells exposed to vehicle (i.e., ethanol or methanol) only, analogous to the determination of PPAR activity as described in the previous examples.

[3] = molecular target: T3, Progesterone Receptor (Homo sapiens, UniProt P06401); assay: PR (ARE)2-Luc luciferase reporter gene assay
T3 construct: expressed in transfected cells; host or cells: HeLa (named for the formononetin and daidzein experiments)
T3 sequence (P06401 1-933): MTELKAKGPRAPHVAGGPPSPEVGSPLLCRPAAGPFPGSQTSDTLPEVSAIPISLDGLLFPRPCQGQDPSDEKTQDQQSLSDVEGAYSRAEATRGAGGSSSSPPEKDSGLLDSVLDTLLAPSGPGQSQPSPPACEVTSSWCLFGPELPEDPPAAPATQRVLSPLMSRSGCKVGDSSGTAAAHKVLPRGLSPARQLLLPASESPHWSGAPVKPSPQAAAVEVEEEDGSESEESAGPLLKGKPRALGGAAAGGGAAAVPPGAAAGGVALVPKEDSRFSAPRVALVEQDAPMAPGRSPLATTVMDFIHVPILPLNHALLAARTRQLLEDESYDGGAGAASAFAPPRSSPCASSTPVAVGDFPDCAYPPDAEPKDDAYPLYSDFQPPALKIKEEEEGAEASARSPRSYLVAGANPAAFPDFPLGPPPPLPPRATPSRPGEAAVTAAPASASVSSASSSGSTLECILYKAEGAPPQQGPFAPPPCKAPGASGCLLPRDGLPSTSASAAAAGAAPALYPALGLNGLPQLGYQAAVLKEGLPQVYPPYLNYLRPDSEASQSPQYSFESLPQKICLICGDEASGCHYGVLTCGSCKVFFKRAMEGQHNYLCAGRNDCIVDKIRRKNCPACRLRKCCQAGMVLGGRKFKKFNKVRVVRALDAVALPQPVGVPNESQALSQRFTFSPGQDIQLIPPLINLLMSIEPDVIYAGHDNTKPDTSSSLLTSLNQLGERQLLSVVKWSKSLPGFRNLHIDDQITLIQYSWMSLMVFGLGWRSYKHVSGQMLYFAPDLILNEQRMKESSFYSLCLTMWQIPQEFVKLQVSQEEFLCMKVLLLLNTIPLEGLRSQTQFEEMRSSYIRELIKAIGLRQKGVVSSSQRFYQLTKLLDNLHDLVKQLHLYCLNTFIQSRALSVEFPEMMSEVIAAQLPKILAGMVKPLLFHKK
Procedure: as §2, §3

[4] = molecular target: T4, PPARγ (Homo sapiens, UniProt P37231); assay: Chimeric Gal4DBD-PPARγLBD receptor / UASg-luciferase reporter gene assay in HeLa cells
T4 construct: expressed in transfected cells; host or cells: HeLa
T4 sequence (P37231 238-503 limits assumed): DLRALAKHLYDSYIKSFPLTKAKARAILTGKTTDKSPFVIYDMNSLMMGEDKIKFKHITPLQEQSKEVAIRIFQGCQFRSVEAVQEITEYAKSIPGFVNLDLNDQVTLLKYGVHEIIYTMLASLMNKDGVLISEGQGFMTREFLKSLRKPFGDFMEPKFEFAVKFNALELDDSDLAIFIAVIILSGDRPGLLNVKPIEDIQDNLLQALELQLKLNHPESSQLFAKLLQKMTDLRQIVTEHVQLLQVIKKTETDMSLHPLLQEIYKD
Text: as §1

[5] = molecular target: T5, human estrogen receptor ERβ (Homo sapiens, UniProt Q92731); assay: ERβ MMTV-ERE-LUC reporter gene assay in HeLa cells
T5 construct: expressed in transfected cells; host or cells: HeLa
Procedure: (§4) ERα and ERβ activity were assayed using plasmids encoding either ERα or ERβ co-transfected with the ERE-LUC reporter gene. To assay estrogen receptor agonist activity, HeLa cells were transiently co-transfected with two plasmids (Tcherepanova, et al., 2000) using Lipofectamine. The first plasmid comprised DNA encoding human estrogen receptor (either ERα or ERβ), and the second plasmid comprised an estrogen-driven reporter system comprising: a luciferase reporter gene (LUC) whose transcription is under the control of upstream regulatory elements comprising 4 copies of the vitellogenin estrogen response element (ERE) cloned into the Mouse Mammary Tumor Virus (MMTV) promoter (the full name of the reporter system being ‘MMTV-ERE-LUC’).
as §3

[6] = molecular target: T6, human estrogen receptor ERα (Homo sapiens, UniProt P03372); assay: ERα MMTV-ERE-LUC reporter gene assay in HeLa cells
T6 construct: expressed in transfected cells; host or cells: HeLa
T6 sequence (P03372 1-595): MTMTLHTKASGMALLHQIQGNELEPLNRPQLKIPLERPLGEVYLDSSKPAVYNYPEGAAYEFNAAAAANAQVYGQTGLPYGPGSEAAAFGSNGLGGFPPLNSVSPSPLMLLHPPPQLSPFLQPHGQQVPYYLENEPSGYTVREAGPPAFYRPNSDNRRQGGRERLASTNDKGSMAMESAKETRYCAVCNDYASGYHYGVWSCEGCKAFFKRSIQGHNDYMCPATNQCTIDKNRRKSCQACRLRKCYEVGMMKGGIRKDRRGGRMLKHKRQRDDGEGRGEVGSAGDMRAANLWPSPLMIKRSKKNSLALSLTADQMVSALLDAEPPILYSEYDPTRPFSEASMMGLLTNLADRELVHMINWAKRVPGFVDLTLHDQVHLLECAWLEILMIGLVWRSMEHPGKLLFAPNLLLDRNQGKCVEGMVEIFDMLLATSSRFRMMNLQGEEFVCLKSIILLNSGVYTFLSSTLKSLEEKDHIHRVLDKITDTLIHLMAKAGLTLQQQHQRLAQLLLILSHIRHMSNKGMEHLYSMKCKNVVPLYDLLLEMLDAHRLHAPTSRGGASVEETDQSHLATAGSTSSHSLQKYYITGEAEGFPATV
Procedure: as §4, §3

T5 sequence (Q92731 whole entry): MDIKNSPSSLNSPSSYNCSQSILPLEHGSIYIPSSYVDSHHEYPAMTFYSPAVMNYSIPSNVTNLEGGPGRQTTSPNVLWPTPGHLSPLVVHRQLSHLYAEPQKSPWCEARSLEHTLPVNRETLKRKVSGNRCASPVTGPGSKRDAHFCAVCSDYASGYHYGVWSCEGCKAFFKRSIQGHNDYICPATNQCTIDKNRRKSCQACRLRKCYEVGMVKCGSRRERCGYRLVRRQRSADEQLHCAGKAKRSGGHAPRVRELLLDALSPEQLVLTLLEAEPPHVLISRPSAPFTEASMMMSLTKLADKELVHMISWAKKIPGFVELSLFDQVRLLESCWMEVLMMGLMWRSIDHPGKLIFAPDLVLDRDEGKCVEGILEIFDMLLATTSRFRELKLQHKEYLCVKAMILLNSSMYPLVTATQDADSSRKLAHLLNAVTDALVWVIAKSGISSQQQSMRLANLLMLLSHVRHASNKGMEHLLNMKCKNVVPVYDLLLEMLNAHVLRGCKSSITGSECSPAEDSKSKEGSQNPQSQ

Row | ERβ activity comparable to % maximal activity of Estradiol ([5]; 30×10^−6 g/ml) | increase of PPARα activity, up to ([1]; Table 8) | increase of PPARγ activity, up to ([4]; Table 8) | increase of the activity of maximal doses of PR agonist ([3]; with progesterone 10×10^−6M) | increase of the activity of maximal doses of estradiol on ERα ([6]; with estradiol 1×10^−9M) | Compound | increase of the activity of maximal doses of PPARα agonist [1] | increase of the activity of maximal doses of AR agonist ([2]; with dihydrotestosterone 1×10^−9M) | increase of the activity of maximal doses of PR agonist ([3]; Example 16, progesterone 100×10^−9M, 10 × 10^−9M (Table 11)) | intrinsic agonistic AR activity ([2]; 0.1 to 30×10^−6M, no dihydrotestosterone) | further increase of the activity of saturating doses of dihydrotestosterone ([2]; dihydrotestosterone 10×10^−9M, FIG. 2A) | effect on the activity of dihydrotestosterone on AR ([2]; fixed 3×10^−6 M, dihydrotestosterone 0.01 to 10×10^−9M, FIG. 2B) | Luciferase activity (Fold ± SE), PPAR activity at fixed dose ([4]; GW9662 0 ×10^−6M, fixed doses: HQ Water extract 8 × 10^−6 g/mL, HQ DCM extract 50 × 10^−6 g/mL, Formononetin, Genistein 10 × 10^−6 M) | Luciferase activity (Fold ± SE), PPAR activity at fixed dose ([4]; GW9662 0.3 ×10^−6M, fixed doses) | Luciferase activity (Fold ± SE), PPAR activity at fixed dose ([4]; GW9662 1 ×10^−6M, fixed doses) | Luciferase activity (Fold ± SE), PPAR activity at fixed dose ([4]; GW9662 3 ×10^−6M, fixed doses) | Luciferase activity (Fold ± SE), PPAR activity at fixed dose ([4]; GW9662 10 ×10^−6M, fixed doses) | Luciferase activity (Fold ± SE), PPAR activity at fixed dose ([4]; GW9662 30 ×10^−6M, fixed doses) | effect on ERβ activity of estradiol ([5]; 1 to 30×10^−6 g/mL + estradiol 1×10^−9M) | PPARγ activity when added to pioglitazone compared with pioglitazone alone ([4]; 3 to 30 ×10^−6 g/mL + pioglitazone 30×10^−6M) | ERα activity comparable to % maximal activity of Estradiol ([6]; 30×10^−6 g/ml)
1 |  |  |  |  |  | 3′,7-Dihydroxy-4′-methoxyisoflavone [calycosin] | 7 fold | 3 fold | 3 fold |  |  |  |  |  |  |  |  |  |  |  | 
2 |  |  |  |  |  | O=c1c(-c2ccc(O)cc2)coc2cc(O)cc(O)c12 [genistein] |  |  |  | does not display any intrinsic agohistic AR activity | 5 fold | augmented | 7.37 ± 0.128 Fold | 93.6 ± 2.47 Fold | 83.9 ± 4.37 Fold | 82.5 ± 2.63 Fold | 67.4 ± 1.52 Fold | 39.5 ± 0.403 Fold |  |  | 
3 | ~400% | ≤ 10 fold | up to 6 fold | 1.8 fold | 3.2 fold | COc1ccc(-c2coc3cc(O)ccc3c2=O)cc1 [formononetin, 7-Hydroxy-4′-methoxyisoflavone] | 4.4 fold |  |  |  |  |  |  |  |  |  |  |  | did not inhibit or augment the activity of estradiol alone | no different than that observed with pioglitazone alone | comparable to maximal activity of Estradiol

Source: patent US20050118290A1, “Compositions and method for treatment of steroid/nuclear receptor-mediated diseases” (University of Singapore, priority 2003, published 2005)
